Results taken from patent publication US20260102400A1, “PHARMACEUTICAL COMPOSITION FOR DISRUPTING TUMOR BLOOD VESSELS” (SAMSUNG MEDICAL FOUNDATION, priority 2022, published 2026).
Entries after “also recorded” stand apart in the source; their conditions may differ.

Assays:
[1] = system: TSP-1 protein; assay: Western blot of TSP-1 protein expression in HUVEC; format: cell-based, human; details: HUVECs; prolonged exposure and higher 5-FU concentrations; FIG. 3
Protocol: Western blot analysis was conducted to confirm the expression of TSP-1 protein in the HUVEC (human umbilical vein endothelial cell) cell line.
HUVECs cultured in petri dishes were lysed using a buffer containing 50 mM Tris (pH 8.0), 150 mM NaCl, 1% Nonidet P-40, 0.5% sodium deoxycholate (SDC), 0.1% sodium dodecyl sulfate (SDS), and 1× protease inhibitor cocktail. The lysates were incubated on ice for 30 minutes, followed by centrifugation at 14,000 g for 10 minutes to collect the supernatant.
Protein quantification was performed using a bicinchoninic acid (BCA) protein assay kit (Pierce Chemical, Rockford, IL, USA). A total of 30 μg of protein was subjected to electrophoresis on a 10% SDS-polyacrylamide gel and subsequently transferred onto a nitrocellulose membrane. The membrane was blocked with blocking milk for 1 hour, then incubated with the same TSP-1 antibody used for immunostaining at room temperature for 1 hour. After three washes with Tris buffer containing 0.1% Tween 20 at 15-minute intervals, the membrane was incubated with a secondary antibody specific to the primary antibody at room temperature for 1 hour. The detection was carried out using a chemiluminescent substrate (Amersham Life Science, Arlington Heights, IL, USA).
Protein extracted from HUVECs was used as a positive control.

[2] = system: HUVECs; assay: LDH release assay in HUVECs; format: cell-based, human; details: 1 mM, 5 mM and 10 mM 5-FU, P<0.05, FIG. 4
Protocol: To investigate whether the administration of 5-fluorouracil (5-FU) enhances apoptosis in endothelial cells, an LDH release assay was conducted in human umbilical vein endothelial cells (HUVECs). Cytotoxicity was assessed based on the amount of lactate dehydrogenase (LDH) released due to cell membrane damage. The released LDH was quantified using an LDH assay kit (EZ-LDH1000; DoGenBio, Seoul, Korea) according to the manufacturer's protocol.
HUVECs (5×10^4 cells/well) were seeded in a 96-well polystyrene plate and incubated at 37° C. for 24 hours. LDH substrate was added to each well, followed by an additional incubation at 37° C. for 10 minutes. The plate was centrifuged at 600 g for 5 minutes. A 10-μL aliquot of the supernatant was transferred from the culture plate wells to an analysis plate. Subsequently, 100 μL of LDH reaction mixture reagent was added to the supernatant in each well of the analysis plate. After a 30-minute reaction, absorbance was measured at 450 nm using a microplate reader (Model 680; Bio-Rad). The cytotoxicity of 5-FU on HUVECs was determined based on the amount of LDH released.

[3] = system: HUVECs; assay: MTS cell proliferation assay, 5-FU at different pH; format: cell-based, human; details: 5 μM 5-FU, pH 6.4, 7.4, 8.4, 9.0, FIG. 5
Protocol: To evaluate the cytotoxic effect of 5-fluorouracil (5-FU) in human umbilical vein endothelial cells (HUVECs) under different pH conditions, an MTS cell proliferation assay was performed. The cytotoxicity of 5 μM 5-FU at various pH levels in HUVECs was assessed using the CellTiter 96 AQueous One Solution Cell Proliferation Assay (Promega Corp., Madison, WI, USA).
HUVECs were seeded in a 96-well plate at a density of 5×10^3 cells/well and incubated for 24 hours. Subsequently, the cells were cultured for an additional 24 hours in Dulbecco's Modified Eagle's Medium (DMEM) containing 5-FU at different pH conditions (pH 6.4, 7.4, 8.4, and 9.0). Following the incubation, the cells were washed twice with phosphate-buffered saline (PBS), after which 100 μL of fresh DMEM growth medium was added, followed by an additional 48-hour incubation. The medium was then replaced with 100 μL of fresh DMEM growth medium, and 20 μL of 3-(4,5-dimethylthiazol-2-yl)-5-(3-carboxymethoxyphenyl)-2-(4-sulfophenyl)-2H-tetrazolium (MTS) solution (Promega Corp., Madison, WI, USA) was added. After an additional 2-hour incubation, the absorbance was measured at 490 nm using a microplate reader (Model 680, BIO-RAD; Spark, TECAN, CA, USA).

[4] = Pathological changes in subcutaneous muscle layer after injection (H&E); format: in vivo, nude mice; set-up: key: 0=absent; 1=mild; 2=moderate; 3=severe; details: 5 mg pH 8.4 5-FU near the tumor; 24 hours; degeneration, necrosis, inflammation, fibrosis
Protocol: To observe pathological changes in the surrounding tissue after injecting 5 mg of pH 8.4 5-FU near the tumor, the drug was locally administered to nude mice. After 24 hours, tissues, including muscle layers, were collected and subjected to H&E staining to examine degeneration, necrosis, inflammation, and fibrosis in the muscle layer. The extent of each pathological change was scored as follows: 0=absent, 1=mild, 2=moderate, 3=severe, and the results are shown in FIG. 10A and FIG. 10B. FIG. 10A presents observations at 40× magnification, while FIG. 10B presents observations at 100× magnification.

[5] = system: CD31; assay: CD31 immunohistochemical staining of gastric tumor mass after local injection; details: one week after injection
[6] = system: VEGF; assay: VEGF immunohistochemical staining of gastric tumor mass after local injection; details: one week after injection
[7] = system: HUVECs; details: various concentrations of L-NMMA, FIG. 11
Protocol: HUVECs were seeded at a density of 5×10^3 cells/well in a 96-well plate and incubated for 24 hours. Subsequently, the cells were incubated in DMEM medium containing various concentrations of L-NMMA for 24 hours. The cells were then washed twice with PBS, followed by the addition of 100 μL of fresh growth DMEM medium, and incubated for an additional 48 hours. The medium was replaced with 100 μL of fresh growth DMEM medium, after which 20 μL of 3-(4,5-dimethylthiazol-2-yl)-5-(3-carboxymethoxyphenyl)-2-(4-sulfophenyl)-2H-tetrazolium (MTS) was added. After an additional 2-hour incubation, absorbance at 490 nm was measured using a BIO-RAD Model 680 microplate reader (Spark, TECAN, CA, USA).

[8] = system: human gastric cancer cells; assay: Human gastric cancer xenograft, alkaline 5-FU injected adjacent to tumor; format: in vivo, nude mice; details: 5 mg 5-FU pH 8.4, adjacent to tumor, three times at one-week intervals; P<0.05
Protocol: The animals used in the experiment were six male nude mice (Crj: BALB/c-nu/nu mice, male) aged five weeks and weighing approximately 30 grams, purchased from Orient. The mice were subjected to a one-week acclimation period in the laboratory before use. Each nude mouse was subcutaneously xenografted with 5×10^6 human gastric cancer cells suspended in 100 μL of PBS on the dorsal subcutaneous layer. The tumor size was periodically measured, and when it reached a diameter of 1 cm, the drug administration experiment was conducted.
The experimental animals were divided into two groups. One group served as the control group, receiving only physiological saline, while the other group was administered 5 mg of 5-FU at pH 8.4. The drug was injected 0.2 cc adjacent to the tumor three times at one-week intervals. After one month, the major and minor axes of the tumors growing on the dorsal epidermis were measured.

[9] = system: human gastric cancer cells; assay: Human gastric cancer xenograft, bevacizumab; format: in vivo, nude mice
Protocol: The animals used in the experiment were three male nude mice (Crj: BALB/c-nu/nu, male), each weighing approximately 30 g and five weeks old, produced by Orient. The mice underwent a one-week acclimatization period in the laboratory before use. Human gastric cancer cells (5×10^6 cells/100 μL in PBS) were xenografted into the subcutaneous fat layer on the dorsal side of each nude mouse. The tumor size was measured periodically, and drug administration was initiated when the tumor reached a diameter of 1 cm.
The experimental animals were administered 1 mg of bevacizumab by injecting 0.2 cc adjacent to the tumor three times at one-week intervals.

[10] = 5 mg 5-FU at base of tumor, relative to total tissue area

For O=c1[nH]cc(F)c(=O)[nH]1 [5-FU, 5-fluorouracil], the TSP-1 expression [1] was “increased”, the “amount of LDH released” value [2] was “increased in a time-dependent manner” and the “cytotoxic effect according to pH” value [3] was “significantly greater toxicity under alkaline conditions compared to neutral or acidic 5-FU”. The “pathological changes in subcutaneous muscle layer at injection site (score)” value [4] was 0, the “Immunopositive area (CD31)” value ([5]; 5 mg 5-FU at base of tumor) was 257079.525 μm^2 and the “Immuno-positive area (%) (CD31)” value [5, 10] was 0.54%. The “stained area (ratio) of CD31 compared to control group” value ([5]; 5 mg 5-FU) was “lower; also recorded: smaller”, the “distribution of necrotic tissue compared to control group” value ([5]; 5 mg 5-FU, tumor mass) was “increased” and the “Immunopositive area (VEGF)” value ([6]; 5 mg 5-FU at base of tumor) was 46077.917 μm^2. For the same molecule, the “Immuno-positive area (%) (VEGF)” value [6, 10] was 0.10% and the “stained area of VEGF compared to control group” value ([6]; 5 mg 5-FU) was “smaller”.

In the case of CNC(=N)NCCC[C@H](N)C(=O)O [L-NMMA, NG-Monomethyl-L-arginine], the “cell viability, L-NMMA alone” value [7] is reported as “reduction in cell viability”.

For O=c1[nH]cc(F)c(=O)[nH]1 [alkaline 5-FU, 5-fluorouracil], the “tumor size compared to control group that received PBS” value [8] was “reduced” and the “tumor size four weeks after drug administration compared to before injection” value [8] was “decreased”.

For “bevacizumab: recombinant humanized monoclonal antibody designed to inhibit vascular endothelial growth factor (VEGF)”, the “tumor size four weeks after drug administration compared to before injection” value ([9]; 1 mg bevacizumab adjacent to tumor, three times at one-week intervals, P>0.05) was “remained nearly unchanged” and the “tumor size in later follow-up” value ([9]; 1 mg bevacizumab, months after the four-week reading) was “did not change for the following two months and began to increase in the third month”.
